Measurements reported in ChEMBL document CHEMBL5614367, “Hydroxamic acid hybrids: Histone deacetylase inhibitors with anticancer therapeutic potency” (Eur J Med Chem, 2023).
Values belong to the molecule of their own block, whether it stands above or below them.

Key:
[1] = Cytotoxicity against human BEAS-2B cells; assay type: toxicity, cell-based
[2] = Cytotoxicity against human L02 cells; assay type: toxicity, cell-based
HPBALL = test: Cytotoxicity against human HPBALL cells assessed as reduction in cell viability incubated for 72 hrs by MTT assay; assay type: functional, cell-based
Plasmodium falciparum [3] = test: Antiplasmodial activity against artemisinin-resistant Plasmodium falciparum Dd2 R539T assessed as reduction in parasite growth incubated for 3 days by ELISA analysis; assay type: functional, organism-based; details: 72 h
[4] = target: T1, Protein deacetylase HDAC6 (Homo sapiens, UniProt Q9UBN7); test: Inhibition of human recombinant HDAC6 using ZMAL (Z-Lys(Ac)-AMC as fluorogenic substrate pre-incubated for 30 mins followed by substrate addition and measured for 1 hr by Fluorescence based analysis
T1 sequence (Q9UBN7 whole entry): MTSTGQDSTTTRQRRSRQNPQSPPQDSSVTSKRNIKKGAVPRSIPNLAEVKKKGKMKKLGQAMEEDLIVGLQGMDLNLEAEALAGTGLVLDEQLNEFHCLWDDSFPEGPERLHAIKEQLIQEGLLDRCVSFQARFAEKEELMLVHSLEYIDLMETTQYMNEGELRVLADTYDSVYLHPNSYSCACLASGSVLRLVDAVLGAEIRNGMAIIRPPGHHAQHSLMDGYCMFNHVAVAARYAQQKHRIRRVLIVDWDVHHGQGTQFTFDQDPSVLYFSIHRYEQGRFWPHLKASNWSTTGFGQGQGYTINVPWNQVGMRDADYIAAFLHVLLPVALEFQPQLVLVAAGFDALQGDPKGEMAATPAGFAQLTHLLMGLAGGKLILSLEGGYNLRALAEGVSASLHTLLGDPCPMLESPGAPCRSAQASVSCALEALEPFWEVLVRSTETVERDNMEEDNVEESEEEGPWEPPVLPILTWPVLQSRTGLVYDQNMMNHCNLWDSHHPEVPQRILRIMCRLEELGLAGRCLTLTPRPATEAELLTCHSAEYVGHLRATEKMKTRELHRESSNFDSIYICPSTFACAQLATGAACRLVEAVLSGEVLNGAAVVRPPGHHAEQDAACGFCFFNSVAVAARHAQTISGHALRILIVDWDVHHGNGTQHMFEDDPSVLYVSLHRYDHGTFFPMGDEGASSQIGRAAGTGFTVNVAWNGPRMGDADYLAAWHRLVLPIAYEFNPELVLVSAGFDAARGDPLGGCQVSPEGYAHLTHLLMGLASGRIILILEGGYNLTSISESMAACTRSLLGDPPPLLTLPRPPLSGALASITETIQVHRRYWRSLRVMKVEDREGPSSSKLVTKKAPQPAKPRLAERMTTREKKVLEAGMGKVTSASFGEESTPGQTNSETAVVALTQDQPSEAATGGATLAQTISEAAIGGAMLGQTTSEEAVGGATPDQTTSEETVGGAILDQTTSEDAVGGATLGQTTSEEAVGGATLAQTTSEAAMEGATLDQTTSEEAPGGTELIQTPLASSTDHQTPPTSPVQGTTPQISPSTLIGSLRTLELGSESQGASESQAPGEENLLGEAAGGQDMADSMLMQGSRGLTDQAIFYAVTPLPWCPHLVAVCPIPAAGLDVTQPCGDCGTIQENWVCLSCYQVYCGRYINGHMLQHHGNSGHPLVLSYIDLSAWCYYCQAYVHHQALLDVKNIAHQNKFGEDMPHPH

K562 [5] = test: Cytotoxicity against human K562 cells assessed as reduction in cell viability incubated for 72 hrs by Cell-titer Glo based analysis; assay type: functional; details: K562, 72 h
Plasmodium falciparum [6] = test: Antiplasmodial activity against Plasmodium falciparum 3D7 assessed as reduction in parasite growth incubated for 3 days by ELISA analysis; assay type: functional, organism-based; details: 3D7, 72 h
HL-60 [7] = test: Cytotoxicity against human HL-60 cells assessed as reduction in cell viability incubated for 72 hrs by Cell-titer Glo based analysis; assay type: functional; details: HL-60, 72 h
HL-60 [8] = test: Cytotoxicity against human HL-60 cells assessed as reduction in cell viability incubated for 72 hr by MTT assay; assay type: functional, cell-based; details: HL-60, 72 h
MOLM-13 = test: Antiproliferative activity against human MOLM-13 cells assessed as reduction in cell viability incubated for 72 hrs by MTT assay; assay type: functional, cell-based; details: MOLM-13, 72 h
Plasmodium falciparum [9] = test: Antiplasmodial activity against Plasmodium falciparum Dd2 assessed as reduction in parasite growth incubated for 3 days by ELISA analysis; assay type: functional, organism-based; details: Dd2, 72 h
NALM-6 = test: Cytotoxicity against human NALM-6 cells assessed as reduction in cell viability incubated for 72 hrs by MTT assay; assay type: functional, cell-based; details: NALM-6, 72 h
Focal adhesion kinase 1 = Focal adhesion kinase 1 (Homo sapiens, UniProt Q05397); test: Inhibition of FAK (unknown origin)
HCT-116 [10] = test: cells; details: Homo sapiens
Description: Antiproliferative activity against human HCT-116 cells

HCT-116 [11] = test: Potency index, ratio of vorinostat IC50 to test compound IC50 for antiproliferative activity against human HCT-116 cells; assay type: functional
MGC-803 [12] = test: Antitumor activity against human MGC-803 cells xenografted in mouse assessed as tumor growth inhibition at 20 mg/kg relative to control; assay type: functional; details: read-out: TGI
BGC-823 = test: Antiproliferative activity against human BGC-823 cells; assay type: functional, cell-based
KYSE-450 [13] = test: Potency index, ratio of vorinostat IC50 to test compound IC50 for antiproliferative activity against human KYSE-450 cells; assay type: functional
KYSE-450 [14] = test: Antiproliferative activity against human KYSE-450 cells; assay type: functional, cell-based
[15] = target: T1, Protein deacetylase HDAC6; test: Inhibition of HDAC6 (unknown origin)
KYSE-450 [16] = test: Potency index, ratio of TAE-226 IC50 to test compound IC50 for antiproliferative activity against human KYSE-450 cells; assay type: functional
HGC-27 = test: Antiproliferative activity against human HGC-27 cells; assay type: functional, cell-based
HCT-116 [17] = test: Potency index, ratio of TAE-226 IC50 to test compound IC50 for antiproliferative activity against human HCT-116 cells; assay type: functional
MGC-803 [18] = test: Antiproliferative activity against human MGC-803 cells; assay type: functional, cell-based
A549 [19] = test: Antiproliferative activity against human A549 cells assessed as inhibition of cell growth incubated for 48 hrs by SRB assay; assay type: functional, cell-based; details: A549, 48 h
HCT-116 [20] = test: cells; assay type: functional, cell-based; details: Homo sapiens, HCT-116, 48 h
MCF7 = test: Antiproliferative activity against human MCF7 cells assessed as cell growth inhibition by SRB assay; assay type: functional
A549 [21] = test: Antiproliferative activity against human A549 cells assessed as cell growth inhibition by SRB assay; assay type: functional
HeLa = test: Antiproliferative activity against human HeLa cells assessed as cell growth inhibition by SRB assay; assay type: functional
K562 [22] = test: Antiproliferative activity against human K562 cells assessed as cell growth inhibition by SRB assay; assay type: functional
Histone deacetylase 1 = Histone deacetylase 1 (Homo sapiens, UniProt Q13547); test: Inhibition of HDAC1 in human HeLa cells incubated for 72 hrs by ELISA; assay type: cell-based
[23] = target: T1, Protein deacetylase HDAC6; test: Inhibition of HDAC6 in human HeLa cells incubated for 72 hrs by ELISA; assay type: cell-based
C6 = test: cells; assay type: functional, cell-based; details: Rattus norvegicus, C6, 72 h
Description: Antiproliferative activity against rat C6 cells assessed as inhibition of cell growth measured after 72 hrs by CCK-8 assay

HepG2 = test: cells; assay type: functional, cell-based; details: Homo sapiens, HepG2, 72 h
MDA-MB-231 = test: cells; assay type: functional, cell-based; details: Homo sapiens, MDA-MB-231, 72 h
Description: Antiproliferative activity against human MDA-MB-231 cells assessed as inhibition of cell growth measured after 72 hrs by CCK-8 assay

U-937 = test: cells; assay type: functional, cell-based; details: Homo sapiens, U-937, 72 h
Description: Antiproliferative activity against human U-937 cells assessed as inhibition of cell growth measured after 72 hrs by CCK-8 assay

FaDu = test: cells; assay type: functional, cell-based; details: Homo sapiens, 72 h
Description: Antiproliferative activity against human FaDu cells assessed as inhibition of cell growth measured after 72 hrs by CCK-8 assay

A549 [24] = test: cells; assay type: functional, cell-based; details: Homo sapiens, A549, 72 h
Description: Antiproliferative activity against human A549 cells assessed as inhibition of cell growth measured after 72 hrs by CCK-8 assay

A2780 = test: cells; assay type: functional, cell-based; details: Homo sapiens, A2780, 72 h
Description: Antiproliferative activity against human A2780 cells assessed as inhibition of cell growth measured after 72 hrs by CCK-8 assay

MDA-MB-468 = test: cells; assay type: functional, cell-based; details: Homo sapiens, MDA-MB-468, 72 h
Description: Antiproliferative activity against human MDA-MB-468 cells assessed as inhibition of cell growth measured after 72 hrs by CCK-8 assay

U-266 = test: cells; assay type: functional, cell-based; details: Homo sapiens, U-266, 72 h
Description: Antiproliferative activity against human U-266 cells assessed as inhibition of cell growth measured after 72 hrs by CCK-8 assay

K562 [25] = test: cells; assay type: functional, cell-based; details: Homo sapiens, K562, 72 h
Description: Antiproliferative activity against human K562 cells assessed as inhibition of cell growth measured after 72 hrs by CCK-8 assay

[26] = target: T1, Protein deacetylase HDAC6; test: Inhibition of HDAC6 (unknown origin) incubated for 30 mins in presence of fluorimetric assay
PC-3 = test: Antiproliferative activity against human PC-3 cells incubated for 48 hrs by colorimetric method; assay type: functional, cell-based; details: PC-3, 48 h
SW-620 = test: Antiproliferative activity against human SW620 cells incubated for 48 hrs by colorimetric method; assay type: functional, cell-based; details: SW-620, 48 h
NCI-H23 = test: Antiproliferative activity against human NCI-H23 cells incubated for 48 hrs by colorimetric method; assay type: functional, cell-based; details: NCI-H23, 48 h

Chain of Focal adhesion kinase 1 (Q05397 whole entry): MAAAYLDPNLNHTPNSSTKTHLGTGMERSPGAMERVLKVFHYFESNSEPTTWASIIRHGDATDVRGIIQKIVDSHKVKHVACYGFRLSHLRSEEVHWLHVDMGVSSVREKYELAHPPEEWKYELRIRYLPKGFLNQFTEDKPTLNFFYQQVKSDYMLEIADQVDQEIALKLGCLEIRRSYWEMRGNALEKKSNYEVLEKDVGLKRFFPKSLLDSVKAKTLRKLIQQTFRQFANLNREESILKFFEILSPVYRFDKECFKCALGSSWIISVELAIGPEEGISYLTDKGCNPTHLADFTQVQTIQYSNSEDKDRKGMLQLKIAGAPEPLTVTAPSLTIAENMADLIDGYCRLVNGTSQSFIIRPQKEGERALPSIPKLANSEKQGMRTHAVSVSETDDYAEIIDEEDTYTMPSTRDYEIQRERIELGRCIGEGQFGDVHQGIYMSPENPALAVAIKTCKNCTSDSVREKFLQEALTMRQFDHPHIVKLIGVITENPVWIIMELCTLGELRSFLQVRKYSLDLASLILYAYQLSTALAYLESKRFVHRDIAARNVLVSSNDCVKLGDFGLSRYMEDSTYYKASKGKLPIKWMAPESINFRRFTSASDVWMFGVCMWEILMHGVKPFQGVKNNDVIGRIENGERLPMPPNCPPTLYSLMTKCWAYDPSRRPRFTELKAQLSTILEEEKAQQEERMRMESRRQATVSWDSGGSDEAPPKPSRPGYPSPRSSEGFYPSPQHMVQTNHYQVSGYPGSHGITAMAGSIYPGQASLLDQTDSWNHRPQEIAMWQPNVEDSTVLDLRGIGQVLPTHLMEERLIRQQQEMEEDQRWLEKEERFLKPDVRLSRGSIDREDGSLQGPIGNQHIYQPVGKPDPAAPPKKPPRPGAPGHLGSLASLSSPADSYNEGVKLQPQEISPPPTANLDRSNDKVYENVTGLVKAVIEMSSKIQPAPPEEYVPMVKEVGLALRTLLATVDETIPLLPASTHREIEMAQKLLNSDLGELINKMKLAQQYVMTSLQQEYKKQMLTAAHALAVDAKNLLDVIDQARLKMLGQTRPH
Chain of Histone deacetylase 1 (Q13547 whole entry): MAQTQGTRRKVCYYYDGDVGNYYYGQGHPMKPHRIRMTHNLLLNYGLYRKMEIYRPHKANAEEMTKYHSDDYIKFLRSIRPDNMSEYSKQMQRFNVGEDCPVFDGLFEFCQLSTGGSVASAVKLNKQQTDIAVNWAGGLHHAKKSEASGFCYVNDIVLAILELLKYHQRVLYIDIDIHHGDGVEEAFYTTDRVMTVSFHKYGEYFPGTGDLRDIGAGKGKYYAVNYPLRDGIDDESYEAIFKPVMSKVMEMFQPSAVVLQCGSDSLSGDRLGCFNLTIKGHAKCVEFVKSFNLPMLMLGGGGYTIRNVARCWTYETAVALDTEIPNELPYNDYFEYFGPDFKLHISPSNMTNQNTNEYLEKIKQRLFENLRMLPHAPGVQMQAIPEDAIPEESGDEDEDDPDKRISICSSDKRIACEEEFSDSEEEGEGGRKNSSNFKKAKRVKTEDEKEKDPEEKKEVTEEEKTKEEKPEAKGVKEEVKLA

Compound: COCCOc1ccc2c(OCCCCCCCC(=O)NO)cc(=O)oc2c1
IC50 [1]: > 50 µM | IC50 [2]: > 50 µM

Compound: C[C@@H]1CC[C@H]2[C@@H](C)C(SCCC(=O)NO)C[C@@H]3O[C@]4(C)CC[C@@H]1[C@]32OO4 (stereo partly drawn)
IC50 (HPBALL): 0.15 µM | IC50 (Plasmodium falciparum [3]): 0.0019 µM | IC50 [4]: 0.045 µM | IC50 (K562 [5]): 0.69 µM | IC50 (Plasmodium falciparum [6]): 0.0019 µM | IC50 (HL-60 [7]): 0.69 µM | IC50 (HL-60 [8]): 0.69 µM | IC50 (MOLM-13): 0.69 µM | IC50 (Plasmodium falciparum [9]): 0.0019 µM | IC50 (NALM-6): 0.26 µM

Compound: CCCOc1ccc2c(OCCCCCCCC(=O)NO)cc(=O)oc2c1
IC50 [1]: > 50 µM | IC50 [2]: > 50 µM

Compound: COc1cc(Nc2nc(N3CCN(c4ncc(C(=O)NO)cn4)CC3)ncc2Cl)cc(OC)c1
IC50 (C6): 0.28 µM | IC50 (HepG2): 0.28 µM | IC50 (MDA-MB-231): 0.28 µM | IC50 (U-937): 0.28 µM | IC50 (FaDu): 0.28 µM | IC50 (A549 [24]): 0.28 µM | IC50 (A2780): 0.28 µM | IC50 (MDA-MB-468): 0.28 µM | IC50 (U-266): 0.28 µM | IC50 (K562 [25]): 0.28 µM

Second part, led by results:

IC50 (Focal adhesion kinase 1): 0.132 µM | IC50 (HCT-116 [10]): 0.182 µM | IC50 (BGC-823): 0.0154 µM | IC50 [15]: 0.016 µM | IC50 (MGC-803 [18]): 0.0039 µM
Compound: CNC(=O)c1ccccc1Nc1nc(Nc2ccc(NC(=O)CCCCCCC(=O)NO)cc2)ncc1Cl
Ratio IC50 (HCT-116 [11]): 2.8 | inhibition in vivo at 20 mg/kg (MGC-803 [12]): 53.5% | Ratio IC50 (KYSE-450 [13]): 2.8 | IC50 (KYSE-450 [14]): 0.182 µM | Ratio IC50 (KYSE-450 [16]): 2.8 | IC50 (HGC-27): 0.0184 µM | Ratio IC50 (HCT-116 [17]): 2.8

IC50 (A549 [19]): 1.29 µM | IC50 (HCT-116 [20]): 1.29 µM
Compound: O=C(NO)c1ccc(CNc2cccc3cc(-c4cccnc4)cnc23)cc1

GI50 (MCF7): < 10 µM | GI50 (A549 [21]): < 10 µM | GI50 (HeLa): < 10 µM | GI50 (K562 [22]): < 10 µM | IC50 (Histone deacetylase 1): 0.052 µM | IC50 [23]: 0.052 µM
Compound: CC(=O)c1c(-c2ccc([N+](=O)[O-])cc2)cn(CCCCCC(=O)NO)c1C

IC50 [26]: 0.033 µM | IC50 (PC-3): 0.67 µM | IC50 (SW-620): 0.67 µM | IC50 (NCI-H23): 0.67 µM
Compound: Cc1ccc(Cn2cnc3cc(/C=C/C(=O)NO)ccc3c2=O)cc1
